Assay results from US8455475B2 (Gruenenthal GmbH, priority 2009, dated 2013).

molecular target: T1, rat B1R (bradykinin receptor 1) (Rattus norvegicus, UniProt P97583); experiment: FLIPR Ca2+ assay (Fluo-4) on CHO K1 cells stably transfected with the B1R gene of the rat (rB1R cells): % inhibition at 10 μM / IC50, agonist Des-Arg9-bradykinin; format: cell-based; conditions: CHO-K1, rat B1R
T1 construct: expressed in transfected cells; host or cells: CHO K1 cells
T1 sequence (P97583 1-337): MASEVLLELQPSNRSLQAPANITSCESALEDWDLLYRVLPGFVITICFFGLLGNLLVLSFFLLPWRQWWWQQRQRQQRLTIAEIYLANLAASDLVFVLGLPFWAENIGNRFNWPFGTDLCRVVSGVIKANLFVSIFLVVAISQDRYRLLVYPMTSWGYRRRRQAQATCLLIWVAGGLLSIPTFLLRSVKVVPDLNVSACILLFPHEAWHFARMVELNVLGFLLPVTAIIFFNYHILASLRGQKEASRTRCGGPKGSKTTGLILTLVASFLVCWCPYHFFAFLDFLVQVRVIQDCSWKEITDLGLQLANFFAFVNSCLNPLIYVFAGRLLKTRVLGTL
Summary of the method: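 Loading with Fluo-4 occurs for 60 min at 37 °C, or alternatively in buffer A, before FLIPR measurement. Compounds are applied, incubated 10–20 min, and then the EC80 agonist is added. Antagonism appears as reduced peak Ca2+ signal relative to maximal inhibition.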

inhibition at 10 µM [%]	Compound
62	COc1ccc(CN2CCC3(CC2)CCN(C(=O)c2ccc4c(c2)C(N(C(=O)c2ccccc2Cl)C2CC2)CC4)C3)cc1F (centres unmarked) [IND_CC-524, 2-Chloro-N-cyclopropyl-N-[6-[8-[(3-fluoro-4-methoxy-phenyl)-methyl]-2,8-diazaspiro[4.5]decane-2-carbonyl]-2,3-dihydro-1H-inden-1-yl]-benzamide]
62	COc1cccc(F)c1CN1CCC2(CC1)CCN(C(=O)c1ccc3c(c1)C(N(C(=O)c1ccccc1Cl)C1CC1)CC3)C2 (centres unmarked) [IND_CC-525, 2-Chloro-N-cyclopropyl-N-[6-[8-[(2-fluoro-6-methoxy-phenyl)-methyl]-2,8-diazaspiro[4.5]decane-2-carbonyl]-2,3-dihydro-1H-inden-1-yl]-benzamide]
98	Cc1nc[nH]c1CN1CCC2(CC1)CCN(C(=O)c1ccc3c(c1)C(NC(=O)c1ccccc1Cl)CC3)CC2 (centres unmarked) [IND_CC-527, 2-Chloro-N-[6-[9-[(5-methyl-3H-imidazol-4-yl)-methyl]-3,9-diazaspiro[5.5]undecane-3-carbonyl]-2,3-dihydro-1H-inden-1-yl]-benzamide]
104	O=C(NC1CCc2ccc(C(=O)N3CCC4(CCN(Cc5ccc(F)cc5Cl)CC4)CC3)cc21)c1ccccc1Cl (centres unmarked) [IND_CC-529, 2-Chloro-N-[6-[9-[(2-chloro-4-fluoro-phenyl)-methyl]-3,9-diazaspiro[5.5]undecane-3-carbonyl]-2,3-dihydro-1H-inden-1-yl]-benzamide]
96	O=C(NC1CCc2ccc(C(=O)N3CCC4(CCN(Cc5c(F)cccc5Cl)CC4)CC3)cc21)c1ccccc1Cl (centres unmarked) [IND_CC-530, 2-Chloro-N-[6-[9-[(2-chloro-6-fluoro-phenyl)-methyl]-3,9-diazaspiro[5.5]undecane-3-carbonyl]-2,3-dihydro-1H-inden-1-yl]-benzamide]
81	Cc1c(CN2CCC3(CC2)CCN(C(=O)c2ccc4c(c2)C(NC(=O)c2ccccc2Cl)CC4)CC3)cnn1C (centres unmarked) [IND_CC-531, 2-Chloro-N-[6-[9-[(1,5-dimethyl-1H-pyrazol-4-yl)-methyl]-3,9-diazaspiro[5.5]undecane-3-carbonyl]-2,3-dihydro-1H-inden-1-yl]-benzamide]
62	Cc1noc(C)c1CN1CCC2(CC1)CCN(C(=O)c1ccc3c(c1)C(NC(=O)c1ccccc1Cl)CC3)CC2 (centres unmarked) [IND_CC-532, 2-Chloro-N-[6-[9-[(3,5-dimethyl-isoxazol-4-yl)-methyl]-3,9-diazaspiro[5.5]undecane-3-carbonyl]-2,3-dihydro-1H-inden-1-yl]-benzamide]
74	N#Cc1ccc(CN2CCC3(CC2)CCN(C(=O)c2ccc4c(c2)C(NC(=O)c2ccccc2Cl)CC4)CC3)cc1 (centres unmarked) [IND_CC-533, 2-Chloro-N-[6-[9-[(4-cyano-phenyl)-methyl]-3,9-diazaspiro[5.5]undecane-3-carbonyl]-2,3-dihydro-1H-inden-1-yl]-benzamide]
102	N#Cc1cccc(CN2CCC3(CC2)CCN(C(=O)c2ccc4c(c2)C(NC(=O)c2ccccc2Cl)CC4)CC3)c1 (centres unmarked) [IND_CC-534, 2-Chloro-N-[6-[9-[(3-cyano-phenyl)-methyl]-3,9-diazaspiro[5.5]undecane-3-carbonyl]-2,3-dihydro-1H-inden-1-yl]-benzamide]
54	Cn1cncc1CN1CCC2(CC1)CCN(C(=O)c1ccc3c(c1)C(N(C(=O)c1ccccc1Cl)C1CC1)CC3)C2 (centres unmarked) [IND_CC-536, 2-Chloro-N-cyclopropyl-N-[6-[8-[(3-methyl-3H-imidazol-4-yl)-methyl]-2,8-diazaspiro[4.5]decane-2-carbonyl]-2,3-dihydro-1H-inden-1-yl]-benzamide]
62	O=C(c1ccc2c(c1)C(N(C(=O)c1ccccc1Cl)C1CC1)CC2)N1CCC2(CCN(Cc3ccc(F)cc3Cl)CC2)C1 (centres unmarked) [IND_CC-537, 2-Chloro-N-[6-[8-[(2-chloro-4-fluoro-phenyl)-methyl]-2,8-diazaspiro[4.5]-decane-2-carbonyl]-2,3-dihydro-1H-inden-1-yl]-N-cyclopropyl-benzamide]
72	O=C(c1ccc2c(c1)C(N(C(=O)c1ccccc1Cl)C1CC1)CC2)N1CCC2(CCN(Cc3c(F)cccc3Cl)CC2)C1 (centres unmarked) [IND_CC-538, 2-Chloro-N-[6-[8-[(2-chloro-6-fluoro-phenyl)-methyl]-2,8-diazaspiro[4.5]-decane-2-carbonyl]-2,3-dihydro-1H-inden-1-yl]-N-cyclopropyl-benzamide]
75	N#Cc1ccc(CN2CCC3(CC2)CCN(C(=O)c2ccc4c(c2)C(N(C(=O)c2ccccc2Cl)C2CC2)CC4)C3)cc1 (centres unmarked) [IND_CC-539, 2-Chloro-N-[6-[8-[(4-cyano-phenyl)-methyl]-2,8-diazaspiro[4.5]decane-2-carbonyl]-2,3-dihydro-1H-inden-1-yl]-N-cyclopropyl-benzamide]
82	N#Cc1cccc(CN2CCC3(CC2)CCN(C(=O)c2ccc4c(c2)C(N(C(=O)c2ccccc2Cl)C2CC2)CC4)C3)c1 (centres unmarked) [IND_CC-540, 2-Chloro-N-[6-[8-[(3-cyano-phenyl)-methyl]-2,8-diazaspiro[4.5]decane-2-carbonyl]-2,3-dihydro-1H-inden-1-yl]-N-cyclopropyl-benzamide]
65	N#Cc1ccccc1CN1CCC2(CC1)CCN(C(=O)c1ccc3c(c1)C(N(C(=O)c1ccccc1Cl)C1CC1)CC3)C2 (centres unmarked) [IND_CC-541, 2-Chloro-N-[6-[8-[(2-cyano-phenyl)-methyl]-2,8-diazaspiro[4.5]decane-2-carbonyl]-2,3-dihydro-1H-inden-1-yl]-N-cyclopropyl-benzamide]
102	O=C(NC1CCc2ccc(C(=O)N3CCC4(CCN(Cc5cc(F)ccc5F)CC4)C3)cc21)c1ccccc1Cl (centres unmarked) [IND_CC-543, 2-Chloro-N-[6-[8-[(2,5-difluoro-phenyl)-methyl]-2,8-diazaspiro[4.5]decane-2-carbonyl]-2,3-dihydro-1H-inden-1-yl]-benzamide]
99	O=C(NC1CCc2ccc(C(=O)N3CCC4(CCN(Cc5ccc(F)cc5F)CC4)C3)cc21)c1ccccc1Cl (centres unmarked) [IND_CC-544, 2-Chloro-N-[6-[8-[(2,4-difluoro-phenyl)-methyl]-2,8-diazaspiro[4.5]decane-2-carbonyl]-2,3-dihydro-1H-inden-1-yl]-benzamide]
105	COc1ccc(CN2CCC3(CC2)CCN(C(=O)c2ccc4c(c2)C(NC(=O)c2ccccc2Cl)CC4)C3)cc1F (centres unmarked) [IND_CC-545, 2-Chloro-N-[6-[8-[(3-fluoro-4-methoxy-phenyl)-methyl]-2,8-diazaspiro[4.5]decane-2-carbonyl]-2,3-dihydro-1H-inden-1-yl]-benzamide]
99	COc1cccc(F)c1CN1CCC2(CC1)CCN(C(=O)c1ccc3c(c1)C(NC(=O)c1ccccc1Cl)CC3)C2 (centres unmarked) [IND_CC-546, 2-Chloro-N-[6-[8-[(2-fluoro-6-methoxy-phenyl)-methyl]-2,8-diazaspiro[4.5]decane-2-carbonyl]-2,3-dihydro-1H-inden-1-yl]-benzamide]
71	O=C(NC1CCc2ccc(C(=O)N3CCC4(CCN(Cc5cc(F)ccc5F)CC4)C3)cc21)c1sccc1Cl (centres unmarked) [IND_CC-547, 3-Chloro-N-[6-[8-[(2,5-difluoro-phenyl)-methyl]-2,8-diazaspiro[4.5]decane-2-carbonyl]-2,3-dihydro-1H-inden-1-yl]-thiophene-2-carboxylic acid amide]
66	COc1ccc(CN2CCC3(CC2)CCN(C(=O)c2ccc4c(c2)C(NC(=O)c2sccc2Cl)CC4)C3)cc1F (centres unmarked) [IND_CC-548, 3-Chloro-N-[6-[8-[(3-fluoro-4-methoxy-phenyl)-methyl]-2,8-diazaspiro[4.5]decane-2-carbonyl]-2,3-dihydro-1H-inden-1-yl]-thiophene-2-carboxylic acid amide]
60	CN(C(=O)c1ccccc1Cl)C1CCc2ccc(C(=O)N3CCC4(CCN(Cc5ccc(F)c(F)c5)CC4)C3)cc21 (centres unmarked) [IND_CC-549, 2-Chloro-N-[6-[8-[(3,4-difluoro-phenyl)-methyl]-2,8-diazaspiro[4.5]decane-2-carbonyl]-2,3-dihydro-1H-inden-1-yl]-N-methyl-benzamide]
62	CN(C(=O)c1ccccc1Cl)C1CCc2ccc(C(=O)N3CCC4(CCN(Cc5cc(F)ccc5F)CC4)C3)cc21 (centres unmarked) [IND_CC-550, 2-Chloro-N-[6-[8-[(2,5-difluoro-phenyl)-methyl]-2,8-diazaspiro[4.5]decane-2-carbonyl]-2,3-dihydro-1H-inden-1-yl]-N-methyl-benzamide]
55	CN(C(=O)c1ccccc1Cl)C1CCc2ccc(C(=O)N3CCC4(CCN(Cc5ccc(F)cc5F)CC4)C3)cc21 (centres unmarked) [IND_CC-551, 2-Chloro-N-[6-[8-[(2,4-difluoro-phenyl)-methyl]-2,8-diazaspiro[4.5]decane-2-carbonyl]-2,3-dihydro-1H-inden-1-yl]-N-methyl-benzamide]
68	COc1ccc(CN2CCC3(CC2)CCN(C(=O)c2ccc4c(c2)C(N(C)C(=O)c2ccccc2Cl)CC4)C3)cc1F (centres unmarked) [IND_CC-552, 2-Chloro-N-[6-[8-[(3-fluoro-4-methoxy-phenyl)-methyl]-2,8-diazaspiro[4.5]-decane-2-carbonyl]-2,3-dihydro-1H-inden-1-yl]-N-methyl-benzamide]
73	Cc1nc(CN2CCC3(CC2)CCN(C(=O)c2ccc4c(c2)C(NC(=O)c2ccccc2Cl)CC4)C3)c[nH]1 (centres unmarked) [IND_CC-554, 2-Chloro-N-[6-[8-[(2-methyl-1H-imidazol-4-yl)-methyl]-2,8-diazaspiro[4.5]decane-2-carbonyl]-2,3-dihydro-1H-inden-1-yl]-benzamide]
